Values quoted from earlier work as cited in patent US20140080794A1, “Methods and Compositions for the Treatment of Estrogen-Dependent Hyperproliferative Uterine Disorders” (Vivus, Inc., priority 2008, published 2014).

System: endometriosis patients

In the case of `CC(C)(C#N)c1cc(Cn2cncn2)cc(C(C)(C)C#N)c1` [anastrozole, α, α, α′, α′-tetramethyl-5-(1H-1,2,4-triazol-1-ylmethyl)-1,3-benzene-diacetonitrile], the symptoms of endometriosis (1 mg anastrozole and an oral contraceptive (20 μg ethinyl estradiol/1 mg levonorgestrel) per day for six months) is listed as “symptom improvement” and the systemic estradiol levels (1 mg anastrozole and an oral contraceptive (20 μg ethinyl estradiol/1 mg levonorgestrel) per day, all patients, by the end of the treatment period) is listed as “significantly suppressed”.
